The values that follow come from ChEMBL document CHEMBL3813691, “Quantitative relationships between structure and cytotoxic activity of flavonoid derivatives. An application of Hirshfeld surface derived descriptors” (Bioorg Med Chem Lett, 2016).

pIC50: −log10 of the molar value.

In one data set the test system is HUVEC. Put plainly: Cytotoxicity against HUVEC assessed as reduction in cell survival after 46 hrs by MTT assay. The class given is cell-based. Particulars: Homo sapiens.
The nature of data set [1]: Cytotoxicity against human HL60 cells assessed as reduction in cell survival after 46 hrs by MTT assay. The class given is functional, cell-based. Particulars: HL-60, 46 h.
Data set [2] is described as follows: Selectivity ratio of IC50 for HUVEC to IC50 for human HL60 cells. It counts as cell-based, HL-60. The settings on record: HUVEC and HL60 cells, read-out: Ratio IC50.
Data set [3] can be described thus: Cytotoxicity against human HL60 cells assessed as reduction in cell survival. The class given is functional, cell-based. The settings on record: HL-60.

As to `O=C(/C=C/c1ccccc1Cl)c1ccccc1O`, the pIC50 in the data set on HUVEC was 5.11.

Turning to `O=C1/C(=C\c2ccccc2)C(c2ccccc2)Oc2ccccc21` (stereo not drawn), in data set [1], the pIC50 is 4.48.

Take `O=C1/C(=C/c2ccc(Cl)cc2)C(c2ccccc2)Oc2ccccc21` (stereo not drawn): the negative-log IC50 (pIC50) with HUVEC was 5.16.

On to `Cc1ccc(C2C3C(=NN2C)c2ccccc2OC3c2ccccc2)cc1` (stereo not drawn), for which the negative logarithm of the IC50 (pIC50) in data set [1] was 4.56.

For `CN1N=C2c3cc(O)ccc3OC(c3ccccc3)C2C1c1ccccc1` (stereo not drawn), the pIC50 in data set [1] was 4.42. With `Oc1cccc(C2NN=C3c4ccccc4OC(c4ccccc4)C32)c1` (stereo not drawn), the negative logarithm of the IC50 (pIC50) in data set [1] was 4.30. On the same count and under the same terms, to `O=C1c2ccccc2OC(c2ccccc2)C12N=NCC2c1ccc([N+](=O)[O-])cc1` (stereo not drawn) belongs 4.26. Take `CN1N=C2c3ccccc3OC(c3ccccc3)C2C1c1ccc(Cl)cc1` (stereo not drawn): the selectivity ratio in data set [2] turned out to be 10. Further, the values for the negative logarithm of the IC50 (pIC50) (with HUVEC; in data set [1]) were 4.15 and 5.13, respectively. For the compound `COc1ccc(C2C3C(=NN2C)c2ccccc2OC3c2ccccc2)cc1` (stereo not drawn), the pIC50 in data set [1] was 3.27.

Take `Oc1ccc(C2NN=C3c4ccccc4OC(c4ccccc4)C32)cc1` (stereo not drawn): in data set [1], the negative-log IC50 (pIC50) was 4.38. Same read-out and setting: to `CN1N=C2c3ccccc3OC(c3ccccc3)C2C1c1cccc(C#N)c1` (stereo not drawn) belongs 4.18. On the same count and under the same terms, to `CN1N=C2c3ccccc3OC(c3ccccc3)C2C1c1ccc(F)cc1` (stereo not drawn) belongs 4.01. Same read-out and setting: to `CN1N=C2c3ccccc3OC(c3ccccc3)C2C1c1ccc(O)cc1` (stereo not drawn) belongs 4.32; to `c1ccc(C2Oc3ccccc3C3=NNC(c4ccncc4)C32)cc1` (stereo not drawn), 4.30. With `CN1N=C2c3ccccc3OC(c3ccccc3)C2C1c1ccc(Br)cc1` (stereo not drawn), the selectivity ratio in data set [2] amounted to 25. The values for the pIC50 (with HUVEC; in data set [1]) were 3.74 and 5.12, respectively.

`COc1cccc(C2C3C(=NN2C)c2ccccc2OC3c2ccccc2)c1` (stereo not drawn): in data set [1], the negative-log IC50 (pIC50) was 4.15.

Regarding `N#Cc1cccc(C2CN=NC23C(=O)c2ccccc2OC3c2ccccc2)c1` (stereo not drawn), the pIC50 in data set [1] was 4.12. On the same count and under the same terms, to `Oc1ccc2c(c1)C1=NNC(c3ccccc3)C1C(c1ccccc1)O2` (stereo not drawn) belongs 4.56.

`CN1N=C2c3ccccc3OC(c3ccccc3)C2C1c1ccc(C#N)cc1` (stereo not drawn): the pIC50 in data set [1] is 4.70. For the compound `Cc1cccc(C2C3C(=NN2C)c2ccccc2OC3c2ccccc2)c1` (stereo not drawn), the pIC50 in data set [1] is 4.22. Same read-out and setting: to `CN1N=C2c3ccccc3OC(c3ccccc3)C2C1c1ccccc1` (stereo not drawn) belongs 4.27; to `CN1N=C2c3ccccc3OC(c3ccccc3)C2C1c1cccc(O)c1` (stereo not drawn), 3.46. Same read-out and setting: to `COc1cccc(C2CN=NC23C(=O)c2ccccc2OC3c2ccccc2)c1` (stereo not drawn) belongs 4.13. As for `COc1cc([C@@H]2c3cc4c(cc3[C@@H](O[C@@H]3O[C@@H]5CO[C@@H](C)O[C@H]5[C@H](O)[C@H]3O)[C@H]3COC(=O)[C@H]23)OCO4)cc(OC)c1O` [ETOPOSIDE], in data set [3], the negative logarithm of the IC50 (pIC50) was 7.60.
